Target: T1, Est_p6 (uncultured bacterium, UniProt D7NJ22)
T1 construct: predicted signal peptide (residues 1-26) removed, from residue 27 of 357; C-terminal 6xHis tag kept (pET-28a, NcoI/HindIII); E. coli BL21(DE3); Ni-NTA; 36 kDa by SDS-PAGE
Experiment: spectrophotometric pNP release at […] nm, Lineweaver-Burk
Assay type: biochemical
Conditions: 50 mM Tris-HCl pH 8.60, 50°C, 4% ethanol

T1 sequence (D7NJ22 27-357 limits assumed): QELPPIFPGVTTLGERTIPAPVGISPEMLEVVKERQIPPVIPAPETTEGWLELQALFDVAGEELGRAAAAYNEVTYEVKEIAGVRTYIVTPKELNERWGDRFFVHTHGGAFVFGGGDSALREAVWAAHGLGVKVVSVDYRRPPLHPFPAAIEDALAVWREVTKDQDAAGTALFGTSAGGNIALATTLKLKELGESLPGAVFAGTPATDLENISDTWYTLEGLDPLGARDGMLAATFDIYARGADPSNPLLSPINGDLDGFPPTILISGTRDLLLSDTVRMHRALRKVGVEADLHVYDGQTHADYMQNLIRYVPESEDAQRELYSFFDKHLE

SMILES	Km [µM]
CC(=O)Oc1ccc([N+](=O)[O-])cc1 [C2, pNP acetate]	2640
CCCC(=O)Oc1ccc([N+](=O)[O-])cc1 [C4, pNP butyrate]	1150

The next lines start with the values.

Km [µM]	SMILES
149	CCCCCCCCCCCC(=O)Oc1ccc([N+](=O)[O-])cc1 [C12, pNP laurate]
1280	CCCCCCCCCC(=O)Oc1ccc([N+](=O)[O-])cc1 [C10, pNP caprate]
322	CCCCCCCC(=O)Oc1ccc([N+](=O)[O-])cc1 [C8, pNP caprylate]

— publication PMC3880967, “Isolation of a novel alkaline-stable lipase from a metagenomic library and its specific application for milkfat flavor production” (Microbial Cell Factories, 2014)
